Test results from the NIST ThermoML archive (doi:10.1016/j.jct.2013.03.005).
Where “and” joins values, the source holds several entries; their conditions need not be identical. Equal values may be shown once.

Columns and labels:
[1] = Molar enthalpy of transition or fusion; settings: Crystal; DSC
[2] = for mass density: 298.15 K, 101.33 kPa, mass/volume ratio of a pellet; for Normal melting temperature: DTA
[3] = molar enthalpy of vaporization or sublimation; settings: 298.15 K; Crystal; Static calorimetry

O=C(O)C1c2ccccc2-c2ccccc21 [9H-fluorene-9-carboxylic acid]
Settings	Molar enthalpy of transition or fusion [kJ/mol]	molar enthalpy [kJ/mol]
[1]	30.2	–
[3]	–	127

[2], Crystal
Settings	Normal melting temperature [°C]	mass density [kg/m3]
–	230.68	1164

[2], Crystal, Calculated from knudsen effusion weight loss
Settings	vapor or sublimation pressure [kPa]
384.16 K	0.000139
386.13 K	0.000171
388.15 K	0.000211
392.14 K	0.000307
394.15 K	0.000378
396.15 K	0.000474
398.15 K	0.000558
400.13 K	0.000689
402.14 K	0.000811
404.15 K	0.000994
406.16 K	0.001182

OCC1c2ccccc2-c2ccccc21 [9-fluorenemethanol]
Settings	Molar enthalpy of transition or fusion [kJ/mol]
[1]	27.9

[2], Crystal
Settings	Normal melting temperature [°C]	mass density [kg/m3]
–	103.92	1084

[2]
Settings	vapor or sublimation pressure
337.18 K, Crystal, Calculated from knudsen effusion weight loss	9.2e-05 kPa and 9e-05 kPa
339.17 K, Crystal, Calculated from knudsen effusion weight loss	0.000119 kPa and 0.000117 kPa and 0.000115 kPa
341.1 K, Crystal, Calculated from knudsen effusion weight loss	0.00015 kPa and 0.000147 kPa
343.17 K, Crystal, Calculated from knudsen effusion weight loss	0.00019 kPa and 0.000187 kPa and 0.000197 kPa
345.21 K, Crystal, Calculated from knudsen effusion weight loss	0.000247 kPa and 0.000239 kPa and 0.000243 kPa
347.13 K, Crystal, Calculated from knudsen effusion weight loss	0.000306 kPa and 0.000303 kPa and 0.000302 kPa
349.16 K, Crystal, Calculated from knudsen effusion weight loss	0.00038 kPa and 0.000381 kPa and 0.00039 kPa
351.22 K, Crystal, Calculated from knudsen effusion weight loss	0.000493 kPa and 0.000476 kPa and 0.000488 kPa
353.14 K, Crystal, Calculated from knudsen effusion weight loss	0.000611 kPa and 0.000602 kPa and 0.000607 kPa
355.17 K, Crystal, Calculated from knudsen effusion weight loss	0.000748 kPa and 0.000739 kPa and 0.000772 kPa
357.16 K, Crystal, Calculated from knudsen effusion weight loss	0.00095 kPa and 0.000955 kPa and 0.000923 kPa
359.1 K, Crystal, Calculated from knudsen effusion weight loss	0.00118 kPa and 0.001184 kPa and 0.001169 kPa
362.69 K, Liquid, Closed cell (Static) method	0.00242 kPa
364.67 K, Liquid, Closed cell (Static) method	0.00285 kPa
366.66 K, Liquid, Closed cell (Static) method	0.00333 kPa
368.63 K, Liquid, Closed cell (Static) method	0.00391 kPa
370.62 K, Liquid, Closed cell (Static) method	0.00456 kPa
372.6 K, Liquid, Closed cell (Static) method	0.00529 kPa
374.57 K, Liquid, Closed cell (Static) method	0.00615 kPa
376.56 K, Liquid, Closed cell (Static) method	0.00711 kPa
378.53 K, Liquid, Closed cell (Static) method	0.00817 kPa
380.52 K, Liquid, Closed cell (Static) method	0.00947 kPa
382.5 K, Liquid, Closed cell (Static) method	0.01089 kPa
384.49 K, Liquid, Closed cell (Static) method	0.01253 kPa
386.47 K, Liquid, Closed cell (Static) method	0.0143 kPa
388.43 K, Liquid, Closed cell (Static) method	0.01639 kPa
390.43 K, Liquid, Closed cell (Static) method	0.0188 kPa
392.39 K, Liquid, Closed cell (Static) method	0.02137 kPa
394.37 K, Liquid, Closed cell (Static) method	0.02432 kPa
396.35 K, Liquid, Closed cell (Static) method	0.02764 kPa
398.32 K, Liquid, Closed cell (Static) method	0.03131 kPa
400.3 K, Liquid, Closed cell (Static) method	0.03556 kPa
